In patent publication US7749983B2, “Metabolically stable alkoxyalkyl esters of antiviral or antiproliferative phosphonates, nucleoside phosphonates and nucleoside phosphates” (priority 2006, dated 2010):
“And” between values parts separate entries of the source, which are not always exact repeats. Equal entries are not always repeated. Where two headings read alike, the source gives them in different places.

How the values were obtained:
[1] = system: vaccinia virus strain, Copenhagen; assay: microbe, parasite or virus in culture; assay type: cell-based; conditions: for EC50: read-out: Vaccinia Copenhagen EC50
[2] = system: cowpox virus, strain Brighton; assay: microbe, parasite or virus in culture; assay type: cell-based; conditions: for EC50: read-out: Cowpox Brighton EC50
HFF cells = assay: Neutral-red uptake assay for toxicity; conditions: 7 days
[3] = Neutral-red uptake assay for toxicity; conditions: human, HFF cells
[4] = system: Ectromelia Virus (ECTV, MOS strain); assay: microbe, parasite or virus in culture; assay type: cell-based
ectromelia virus (ECTV) = system: ectromelia virus (ECTV); parameters: species or system A/Ncr mice; conditions: mouse, in vivo; for MDD, Mean day of death / Mortality: po
[5] = Metabolic stability testing with monkey liver S9 fractions; conditions: FIG. 3; 37° C., protein 3 mg/mL, compound 1 μM
[6] = Metabolic stability testing with human liver S9 fractions; conditions: FIG. 3; 37° C., protein 3 mg/mL, compound 1 μM
[7] = read-out: Ectromelia Virus EC50

With `Nc1ccn(C[C@@H](CO)OCP(=O)(O)O)c(=O)n1` [CDV, cidofovir] the “Vaccinia Copenhagen SI (Selectivity Index) = CC50/EC50” value [1] was >17 and >16, the EC50 ([1]; Orthopoxvirus vaccinia, HFF) was 19000 ± 9900 nM and the EC50 [1] was 19400 nM. The “Cowpox Brighton SI (Selectivity Index) = CC50/EC50” value [2] was >10 and >8.3, the EC50 ([2]; Cowpox virus, HFF) was 31000 ± 1700 nM and the EC50 [2] was 38100 nM. For the same compound, the CC50 (HFF cells; Table 4, neutral-red uptake) was over 317 µM and the CC50 at 7 days [3] was over 317 µM.

For `CC(C)CCCCCCCCCCCCCCOCCOP(=O)(O)CO[C@H](CO)Cn1cnc2c(N)ncnc21` [15M-HDE-HPMPA, 3-(15-methylhexadceyloxy)ethyl (S)-HPMPA], the EC50 [4, 7] was 12 nM.

Work on `CCCCCCCCCCCCCCCCCCOCCOP(=O)(O)CO[C@H](CO)Cn1cnc2c(N)ncnc21` [ODE-(S)-HPMPA] yielded an EC50 [1] of 8 nM, an EC50 [2] of 12 nM and a CC50 (HFF cells; Table 4, neutral-red uptake) of 2.1 µM.

Compound `CC(C)CCCCCCCCCCCCCCCCOCCOP(=O)(O)CO[C@H](CO)Cn1cnc2c(N)ncnc21` [17M-ODE-(S)-HPMPA, 2-(17-methyloctadecyloxy)ethyl (S)-HPMPA] has an EC50 [1] of 9 nM, an EC50 [2] of 11 nM and a CC50 (HFF cells; Table 4, neutral-red uptake) of 0.8 µM.

With `CC(C)CCCCCCCCCCCCOCCCOP(=O)(O)CO[C@H](CO)Cn1ccc(N)nc1=O` [Compound 13M-TDP-CDV, 13-methyl-tetradecyloxypropyl cidofovir] the EC50 [4, 7] was 400 nM, the EC50 [1] was 130 nM and the EC50 [2] was 200 nM. The CC50 (HFF cells; Table 3, neutral-red uptake) was 41 ± 2 µM, the “MDD, Mean day of death” value (ectromelia virus (ECTV); 2.5 mg/kg) was 9.3 and the Mortality (ectromelia virus (ECTV); 2.5 mg/kg) was 4/5. For the same compound, the Mortality (ectromelia virus (ECTV); 5 mg/kg) was 0/5 and the Mortality (ectromelia virus (ECTV); 10 mg/kg) was 0/5.

For “14-methyl-pentadecyloxypropyl cidofovir [Compound 14M-PDP-CDV]”, the EC50 [4, 7] was 170 nM, the EC50 [1] was 140 nM and the EC50 [2] was 130 nM. The CC50 (HFF cells; Table 3, neutral-red uptake) was 18 ± 1.1 µM, the “MDD, Mean day of death” value (ectromelia virus (ECTV); 2.5 mg/kg) was 14 and the Mortality (ectromelia virus (ECTV); 2.5 mg/kg) was 1/5. The Mortality (ectromelia virus (ECTV); 5 mg/kg) was 0/5 and the Mortality (ectromelia virus (ECTV); 10 mg/kg) was 0/5.

For `CCCCCCCCCCCCCCCCOCCCOP(=O)(O)CO[C@H](CO)Cn1cnc2c(N)ncnc21` [HDP-(S)-HPMPA, reference compound], the EC50 [1] was 10 nM, the EC50 [2] was 18 nM and the CC50 (HFF cells; Table 4, neutral-red uptake) was 31.8 µM. The “MDD, Mean day of death” value (ectromelia virus (ECTV); 2.5 mg/kg) was 9.4, the Mortality (ectromelia virus (ECTV); 2.5 mg/kg) was 5/5 and the “MDD, Mean day of death” value (ectromelia virus (ECTV); 5 mg/kg) was 11. For the same compound, the Mortality (ectromelia virus (ECTV); 5 mg/kg) was 1/5 and the Mortality (ectromelia virus (ECTV); 10 mg/kg) was 0/5.

In the case of `CCCCCCCCCCCCCCCCOCCCOP(=O)(O)CO[C@H](CO)Cn1ccc(N)nc1=O` [HDP-CDV, hexadecyloxypropyl-CDV, reference compound], the EC50 ([4]; Ectromelia virus, CV-1, read-out: Ectromelia Virus EC50) is reported as 140 nM, the “Vaccinia Copenhagen SI (Selectivity Index) = CC50/EC50” value [1] is reported as 470 and the EC50 ([1]; Orthopoxvirus vaccinia, HFF) is reported as 200 nM. For the same compound, the “Cowpox Brighton SI (Selectivity Index) = CC50/EC50” value [2] was 470, the EC50 ([2]; Cowpox virus, HFF) was 200 nM and the CC50 (in vitro) was 10 µM. For the same compound, the CC50 at 7 days [3] was 94 µM, the “MDD, Mean day of death” value (ectromelia virus (ECTV); 2.5 mg/kg) was 13 and the Mortality (ectromelia virus (ECTV); 2.5 mg/kg) was 2/5. For the same compound, the Mortality (ectromelia virus (ECTV); 5 mg/kg) was 0/5 and the Mortality (ectromelia virus (ECTV); 10 mg/kg) was 0/5.

Compound `CC(C)CCCCCCCCCCCCCCOCCCOP(=O)(O)CO[C@H](CO)Cn1cnc2c(N)ncnc21` [15M-HDP-(S)-HPMPA, 3-(15-methylhexadecyloxy)propyl (S)-HPMPA] has an EC50 [1] of 12 nM, an EC50 [2] of 52 nM and a CC50 (HFF cells; Table 4, neutral-red uptake) of 27.5 µM. For the same compound, the “activity relative to HDP-(S)-HPMPA in lethal ectromelia infection” value (ectromelia virus (ECTV)) was “more active than HDP-(S)-HPMPA”, the “MDD, Mean day of death” value (ectromelia virus (ECTV); 2.5 mg/kg) was 14.3 and the Mortality (ectromelia virus (ECTV); 2.5 mg/kg) was 3/5. The Mortality (ectromelia virus (ECTV); 5 mg/kg) was 0/5 and the Mortality (ectromelia virus (ECTV); 10 mg/kg) was 0/5.

For `CC(C)CCCCCCCCCCCCCCOCCCOP(=O)(O)CO[C@H](CO)Cn1ccc(N)nc1=O` [Compound 15M-HDP-CDV, 15-methyl-hexadecyloxypropyl cidofovir], the EC50 [4, 7] was 40 nM, the “degradation by monkey liver S9 fractions (% of drug remaining versus time), relative to HDP-CDV” value [5] was “markedly slower” and the EC50 [1] was 100 nM. The EC50 [2] was 340 nM, the CC50 (HFF cells; Table 3, neutral-red uptake) was 15.2 ± 5.5 µM and the “degradation by human liver S9 fractions (% of drug remaining versus time), relative to HDP-CDV” value [6] was “markedly slower”.

`CC(C)CCCCCCCCCCCOCCCOP(=O)(O)CO[C@H](CO)Cn1ccc(N)nc1=O` [Compound 12M-TrDP-CDV, 12-methyl-tridecyloxypropyl cidofovir] showed an EC50 [4, 7] of 940 nM, an EC50 [1] of 700 nM and an EC50 [2] of 900 nM. For the same compound, the CC50 (HFF cells; Table 3, neutral-red uptake) was 44 ± 5.4 µM.

With “17-methyl-octadecyloxyethyl cidofovir [Compound 17M-ODE-CDV]” the EC50 [4, 7] was 80 nM, the EC50 [1] was 32 nM and the EC50 [2] was 50 nM. The CC50 (HFF cells; Table 3, neutral-red uptake) was 15 ± 4 µM.

Work on `CCCCCCCCCCCCCCCCOCCOP(=O)(O)COC(CO)Cn1cnc2c(N)ncnc21` (stereo not shown) [HDE-HPMPA, reference compound] yielded an EC50 [4, 7] of 50 nM.
